The results in this text go back to patent US11542255B2, “Sulfonylureas and sulfonylthioureas as NLRP3 inhibitors” (Inflazome Limited, priority 2017, dated 2023).

Assay [1] has as its target T1, NLRP3 (Homo sapiens, UniProt Q96P20). Put plainly: Human whole blood IL1β release assay (LPS + nigericin, AlphaLisa IL-1β). The following applies: NLRP3 inhibitory activity, 1 μg/ml LPS, 10 μM nigericin, IL-1β release, read-out: HWB IC50. Details: Human whole blood in Li-heparin tubes was obtained from healthy donors from a volunteer donor panel; from tissue; host or cells: human whole blood from healthy donors. It is filed as cell-based. Here is the method:
For systemic delivery, the ability to inhibit NLRP3 when the compounds are present within the bloodstream is of great importance. For this reason, the NLRP3 inhibitory activity of a number of compounds in human whole blood was investigated in accordance with the following protocol.
Human whole blood in Li-heparin tubes was obtained from healthy donors from a volunteer donor panel. • 1. Plate out 80 μl of whole blood containing 1 μg/ml of LPS in 96-well, clear bottom cell culture plate (Corning #3585) • 2. Add 10 μl compound (8 points half-log dilution with 10 μM top dose) or vehicle (DMSO 0.1% FAC) to the appropriate wells • 3. Incubate for 3 hrs at 37° C., 5% CO2 • 4. Add 10 μl Nigericin (Sigma #N7143) (10 μM FAC) to all wells • 5. Incubate for 1 hr at 37° C., 5% CO2 • 6. At the end of the incubation period, spin plates at 300×g for 5 mins to pellet cells and remove 20 μl of supernatant and add to 96-well v-bottom plates for IL-1β analysis (note: these plates containing the supernatants can be stored at −80° C. to be analysed at a later date) • 7. IL-1β was measured according to the manufacturer protocol (Perkin Elmer-AlphaLisa IL-1β Kit AL220F-5000) • 8. IC50 data is fitted to a non-linear regression equation (log inhibitor vs response-variable slope 4-parameters)

The target in assay [2] is T1, NLRP3. Put plainly: THP-1 cells pyroptosis assay (LPS + nigericin, resazurin readout). The format is cell-based. Details: Seed THP-1 cells (25,000 cells/well) containing 1.0 μg/ml LPS in 40 μl of RPMI medium; host or cells: THP-1 cells. The note with it: NLRP3 inhibitory activity, 1.0 μg/ml LPS, 5 μM nigericin. The procedure, abridged:
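LPS-primed (1 μg/ml) THP-1 cells, 25,000/well in serum-free RPMI, given compound (8-point half-log, 10 μM top; 0.1% DMSO) for 3 h at 37 °C, then nigericin 5 μM for 1 h. Viability by resazurin (100 μM, 1-2 h), Ex 560/Em 590 nm; IC50 from 4-parameter variable-slope fit.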

Counter-ions that a name gives are not always drawn.

T1 sequence (Q96P20 whole entry): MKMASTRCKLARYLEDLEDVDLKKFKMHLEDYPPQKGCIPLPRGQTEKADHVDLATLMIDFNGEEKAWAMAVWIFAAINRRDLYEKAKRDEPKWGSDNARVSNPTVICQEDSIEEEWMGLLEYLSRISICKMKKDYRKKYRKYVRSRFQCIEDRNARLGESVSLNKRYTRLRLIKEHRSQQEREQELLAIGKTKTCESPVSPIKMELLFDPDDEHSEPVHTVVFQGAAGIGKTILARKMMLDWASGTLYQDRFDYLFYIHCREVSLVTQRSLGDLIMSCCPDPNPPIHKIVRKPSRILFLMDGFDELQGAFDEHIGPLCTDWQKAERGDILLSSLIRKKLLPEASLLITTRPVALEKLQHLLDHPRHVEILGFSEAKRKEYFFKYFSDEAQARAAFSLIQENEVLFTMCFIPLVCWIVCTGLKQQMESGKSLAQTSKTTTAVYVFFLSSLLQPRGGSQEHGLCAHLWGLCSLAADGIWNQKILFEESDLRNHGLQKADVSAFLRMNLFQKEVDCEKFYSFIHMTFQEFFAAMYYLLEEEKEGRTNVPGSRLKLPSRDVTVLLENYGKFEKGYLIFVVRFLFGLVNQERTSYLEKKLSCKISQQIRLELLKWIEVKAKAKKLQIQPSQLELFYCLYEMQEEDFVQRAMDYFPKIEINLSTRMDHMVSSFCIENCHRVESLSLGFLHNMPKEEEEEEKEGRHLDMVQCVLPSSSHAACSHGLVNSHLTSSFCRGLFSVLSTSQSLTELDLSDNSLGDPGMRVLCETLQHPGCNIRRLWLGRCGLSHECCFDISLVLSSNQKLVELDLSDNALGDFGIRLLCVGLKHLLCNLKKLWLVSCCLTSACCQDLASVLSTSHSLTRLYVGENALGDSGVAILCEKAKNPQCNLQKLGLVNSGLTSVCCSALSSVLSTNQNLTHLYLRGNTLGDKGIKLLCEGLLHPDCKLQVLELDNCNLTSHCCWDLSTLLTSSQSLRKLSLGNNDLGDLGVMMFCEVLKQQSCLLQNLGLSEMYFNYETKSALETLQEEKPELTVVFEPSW

Usually IC50 stands for the point on the concentration scale where inhibition reaches its midpoint. `CC(C)c1cc(F)cc(-c2cccc(C#N)c2)c1NC(=O)NS(=O)(=O)c1cc(CN(C)C)n(C)n1` [Example 46, N-((3′-Cyano-5-fluoro-3-isopropyl-[1,1′-biphenyl]-2-yl)carbamoyl)-5-((dimethylamino)methyl)-1-methyl-1H-pyrazole-3-sulfonamide]: the IC50 on NLRP3 [1] is under 400 nM; on NLRP3 [2], 40 to 160 nM.
With `COc1cc(-c2cc(F)cc(C(C)C)c2NC(=O)NS(=O)(=O)c2cc(CN(C)C)n(C(C)C)n2)ccn1` [Example 47, 5-((Dimethylamino)methyl)-N-((4-fluoro-2-isopropyl-6-(2-methoxypyridin-4-yl)phenyl)carbamoyl)-1-isopropyl-1H-pyrazole-3-sulfonamide], the IC50 was under 400 nM at NLRP3 [1] and 40 to 160 nM on NLRP3 [2].
Taken in the same sequence, the figures for `COc1cc(-c2cc(F)cc(C(C)C)c2NC(=O)NS(=O)(=O)c2cc(CN(C)C)n(C)n2)ccn1` [Example 48, 5-((Dimethylamino)methyl)-N-((4-fluoro-2-isopropyl-6-(2-methoxypyridin-4-yl)phenyl)carbamoyl)-1-methyl-1H-pyrazole-3-sulfonamide] were under 400 nM and under 40 nM.
The corresponding values for `CCn1nc(S(=O)(=O)NC(=O)Nc2c(C(C)C)cc(F)cc2C(C)C)cc1CN(C)C` [Example 51, 5-((Dimethylamino)methyl)-1-ethyl-N-((4-fluoro-2,6-diisopropylphenyl)carbamoyl)-1H-pyrazole-3-sulfonamide] are under 400 nM and 160 to 640 nM.
The corresponding values for `CC(C)n1nc(S(=O)(=O)NC(=O)Nc2c3c(cc4c2CCC4)CCC3)cc1CN1CCC1` [Example 53, 5-(Azetidin-1-ylmethyl)-N-((1,2,3,5,6,7-hexahydro-s-indacen-4-yl)carbamoyl)-1-isopropyl-1H-pyrazole-3-sulfonamide] are 400 to 800 nM and under 40 nM.
Turning to `CC(C)c1cc(F)cc(-c2cccnc2)c1NC(=O)NS(=O)(=O)c1cc(CN(C)C)n(C(C)C)n1` [Example 54, 5-((Dimethylamino)methyl)-N-((4-fluoro-2-isopropyl-6-(pyridin-3-yl)phenyl)carbamoyl)-1-isopropyl-1H-pyrazole-3-sulfonamide], the IC50 on NLRP3 [1] was in the range of 400 to 800 nM; at NLRP3 [2], 160 to 640 nM.
The corresponding values for `CC(C)c1cc(Cl)cc(C(C)C)c1NC(=O)NS(=O)(=O)c1cc(CN(C)C)n(C(C)C)n1` [Example 55, N-((4-Chloro-2,6-diisopropylphenyl)carbamoyl)-5-((dimethylamino)methyl)-1-isopropyl-1H-pyrazole-3-sulfonamide] are 1600 to 3200 nM and 40 to 160 nM.
Taken in the same sequence, the figures for `CC(C)n1nc(S(=O)(=O)NC(=O)Nc2c3c(cc4c2CCC4)CCC3)cc1CN(C)CC(F)F` [Example 56, 5-(((2,2-Difluoroethyl)(methyl)amino)methyl)-N-((1,2,3,5,6,7-hexahydro-s-indacen-4-yl)carbamoyl)-1-isopropyl-1H-pyrazole-3-sulfonamide, Sodium Salt] were 3200 to 10000 nM and 40 to 160 nM.
In the case of `CC(C)n1nc(S(=O)(=O)NC(=O)Nc2c3c(cc4c2CCC4)CCC3)cc1CN(C)CCF` [Example 57, 5-(((2-Fluoroethyl)(methyl)amino)methyl)-N-((1,2,3,5,6,7-hexahydro-s-indacen-4-yl)carbamoyl)-1-isopropyl-1H-pyrazole-3-sulfonamide, Sodium Salt], the results for the IC50 on NLRP3 [1] and at NLRP3 [2] were 1600 to 3200 nM and under 40 nM, respectively.
With `CN(C)C1(c2cc(S(=O)(=O)NC(=O)Nc3c4c(cc5c3CCC5)CCC4)nn2C)CC1` [Example 58, 5-(1-(Dimethylamino)cyclopropyl)-N-((1,2,3,5,6,7-hexahydro-s-indacen-4-yl)carbamoyl)-1-methyl-1H-pyrazole-3-sulfonamide, Sodium Salt], the IC50 at NLRP3 [1] fell in the range of 800 to 1600 nM; on NLRP3 [2], 40 to 160 nM.
The corresponding values for `CN(C)CCc1cc(S(=O)(=O)NC(=O)Nc2c3c(cc4c2CCC4)CCC3)nn1C` [Example 59, 5-(2-(Dimethylamino)ethyl)-N-((1,2,3,5,6,7-hexahydro-s-indacen-4-yl)carbamoyl)-1-methyl-1H-pyrazole-3-sulfonamide] are 800 to 1600 nM and 160 to 640 nM.
Turning to `CN(C)C1CCCn2nc(S(=O)(=O)NC(=O)Nc3c4c(cc5c3CCC5)CCC4)cc21` (stereo not shown) [Example 60, 4-(Dimethylamino)-N-((1,2,3,5,6,7-hexahydro-s-indacen-4-yl)carbamoyl)-4,5,6,7-tetrahydropyrazolo[1,5-a]pyridine-2-sulfonamide], the IC50 at NLRP3 [1] is 400 to 800 nM; on NLRP3 [2] it was under 40 nM.
The corresponding values for `CCC(c1cc(S(=O)(=O)NC(=O)Nc2c(C(C)C)cc(F)cc2C(C)C)nn1C(C)C)N(C)C` (stereo not shown) [Example 62, 5-(1-(Dimethylamino)propyl)-N-((4-fluoro-2,6-diisopropylphenyl)carbamoyl)-1-isopropyl-1H-pyrazole-3-sulfonamide] are 400 to 800 nM and 160 to 640 nM.
Taken in the same sequence, the figures for `CCC(c1cc(S(=O)(=O)NC(=O)Nc2c(C(C)C)cc(Cl)cc2C(C)C)nn1C)N(C)C` (stereo not shown) [Example 64, N-((4-Chloro-2,6-diisopropylphenyl)carbamoyl)-5-(1-(dimethylamino)propyl)-1-methyl-1H-pyrazole-3-sulfonamide] were 800 to 1600 nM and under 40 nM.
As to `CCC(c1cc(S(=O)(=O)NC(=O)Nc2c(C(C)C)cc(F)cc2C(C)C)nn1C)N(C)C` (stereo not shown) [Example 65, 5-(1-(Dimethylamino)propyl)-N-((4-fluoro-2,6-diisopropylphenyl)carbamoyl)-1-methyl-1H-pyrazole-3-sulfonamide], the IC50 is under 400 nM on NLRP3 [1] and under 40 nM at NLRP3 [2].
Taken in the same sequence, the figures for `CC(C)c1cc(F)cc(-c2ccccc2)c1NC(=O)NS(=O)(=O)c1cc(CN(C)C)n(C)n1` [Example 66, 5-((Dimethylamino)methyl)-N-((5-fluoro-3-isopropyl-[1,1′-biphenyl]-2-yl)carbamoyl)-1-methyl-1H-pyrazole-3-sulfonamide] were 400 to 800 nM and 160 to 640 nM.
The corresponding values for `CNCc1cc(S(=O)(=O)NC(=O)Nc2c3c(cc4c2CCC4)CCC3)nn1C` [Example 67, N-((1,2,3,5,6,7-Hexahydro-s-indacen-4-yl)carbamoyl)-1-methyl-5-((methylamino)methyl)-1H-pyrazole-3-sulfonamide] are 400 to 800 nM and 40 to 160 nM.
The corresponding values for `CC(C)n1nc(S(=O)(=O)NC(=O)Nc2c3c(cc4c2CCC4)CCC3)cc1CN(C)C` [Example 68, 5-((Dimethylamino)methyl)-N-((1,2,3,5,6,7-hexahydro-s-indacen-4-yl)carbamoyl)-1-isopropyl-1H-pyrazole-3-sulfonamide] are 400 to 800 nM and under 40 nM.
With `CCC(c1cc(S(=O)(=O)NC(=O)Nc2c3c(cc4c2CCC4)CCC3)nn1C)N(C)C` (stereo not shown) [Example 74, 5-(1-(Dimethylamino)propyl)-N-((1,2,3,5,6,7-hexahydro-s-indacen-4-yl)carbamoyl)-1-methyl-1H-pyrazole-3-sulfonamide], the IC50 was under 400 nM at NLRP3 [1] and under 40 nM at NLRP3 [2].
Taken in the same sequence, the figures for `CN1CC(O)(c2cc(S(=O)(=O)NC(=O)Nc3c4c(cc5c3CCC5)CCC4)nn2C)C1` [Example 75, N-((1,2,3,5,6,7-Hexahydro-s-indacen-4-yl)carbamoyl)-5-(3-hydroxy-1-methylazetidin-3-yl)-1-methyl-1H-pyrazole-3-sulfonamide] were 800 to 1600 nM and 160 to 640 nM.
The corresponding values for `Cn1nc(S(=O)(=O)NC(=O)Nc2c3c(cc4c2CCC4)CCC3)cc1CN1CCCC1` [Example 78, N-((1,2,3,5,6,7-Hexahydro-s-indacen-4-yl)carbamoyl)-1-methyl-5-(pyrrolidin-1-ylmethyl)-1H-pyrazole-3-sulfonamide, Sodium Salt] are 400 to 800 nM and 40 to 160 nM.
Taken in the same sequence, the figures for `CC(C)c1cc(F)cc(C(C)C)c1NC(=O)NS(=O)(=O)c1cc(CN2CC(F)C2)n(C)n1` [Example 79, N-((4-Fluoro-2,6-diisopropylphenyl)carbamoyl)-5-((3-fluoroazetidin-1-yl)methyl)-1-methyl-1H-pyrazole-3-sulfonamide] were 800 to 1600 nM and 640 to 2560 nM.
For `Cn1nc(S(=O)(=O)NC(=O)Nc2c3c(cc4c2CCC4)CCC3)cc1CN1CC(F)C1` [Example 80, 5-((3-Fluoroazetidin-1-yl)methyl)-N-((1,2,3,5,6,7-hexahydro-s-indacen-4-yl)carbamoyl)-1-methyl-1H-pyrazole-3-sulfonamide], the IC50 on NLRP3 [1] was 1600 to 3200 nM; at NLRP3 [2], 160 to 640 nM.
